# Columns and labels:
# UMSCC47 cells [1] = assay: Cell proliferation (MTT); format: cell-based, human
# Method: (§1) Cell proliferation was assessed using the MTT reagent (Roche Molecular Biochemicals, Nutley, N.J.) to detect metabolic active cells. Absorbance was measured at 570 nm in the Spectra Max 190 ELISA reader (Molecular Devices, Sunnyvale, Calif.) after overnight incubation. For clonogenic survival, 200 cells per well were plated in complete growth media and allowed to grow until visible colonies were formed (14 days). Cell colonies were fixed with cold methanol, stained with 0.25% crystal violet in 25% methanol, washed, and air dried. For apoptosis, cells were harvested, washed with cold PBS, and co-stained with Annexin V and propidium iodide according to the manufacturer's protocol (ApoAlert Annexin V-FITC Apoptosis Kit; Clontech). Apoptotic cells were analyzed using BD FACS Calibur (BD Biosciences Corporation, Franklin Lakes, N.J.) at The Ohio State University Comprehensive Cancer Center Analytical Cytometry Core.
# p53 [2] = assay: p53 transcriptional activity (Cignal p53 Firefly/Renilla luciferase reporter); format: cell-based, human
# Method: Cells were transfected with 100 ng of Cignal p53 reporter (SABiosciences, Valencia, Calif.) using Lipofectamine 2000. Cignal p53 reporter contains tandem repeats of the p53 consensus transcriptional response element. After 48 hours, cells were washed with cold PBS, lysed in passive lysis buffer (Promega), and measured for Firefly/Renilla dual luciferase activities in a luminometer using the Dual-Light System (Applied Biosystems, Foster City, Calif.). […] to control for transfection efficiency. A modification to the protocol was used for compound treatment. UMSCC47 cells were transfected with 100 ng of Cignal p53 reporter. After 24 hours, cells were treated with vehicle, CH1iB (10 μM), cis-platinum (10 μM), or combination of CH1iB (10 μM) and cis-platinum (10 μM) and measured for Firefly/Renilla dual luciferase activities 24 hours post-treatment.
# HPV16 E6-p300 = target: T1, HPV16 E6-p300 (Homo sapiens, UniProt Q09472); assay: Immunoprecipitation of HPV16 E6-p300 association; format: cell-based; conditions: exogenous CH1; UMSCC47 and UPCI:SCC090 cells
# T1 construct: Cell lysates were extracted, immunoprecipitated with anti-p300 antibody, and immunoblotted with anti-E6 antibody; endogenous in cells; host or cells: UMSCC47 (HPV16-positive HNSCC)
# Method: Cells were lysed with NP buffer [50 mM Tris (pH 8.0), 150 mM NaCl, 0.5% deoxycholate, 0.1% SDS, and 1.0% NP-40] containing 1× Protease Inhibitor Cocktail (Roche, Switzerland) at 4° C. with gentle rocking for 15 min. The supernatant was pre-cleared to block nonspecific binding with 50 μL protein A/G Agarose beads (Pierce Biotechnology) that had been pre-washed with NP buffer before use. Equal amounts of anti-E6 antibody (Abcam), anti-p300 antibody (Millipore), or IgG antibody (Cell Signaling) were added to the respective samples. After 4 hours incubation at 4° C., 50 μL pre-washed protein A/G-agarose beads were added to each tube and immunoprecipitation was performed by rocking overnight at 4° C. The immunoprecipitated complexes were washed with NP buffer and then eluted using 2×SDS sample buffer. Eluted sample and 10% of input were resolved by SDS-PAGE for Western blot analysis with anti-E6, anti-p300, or anti-V5 antibodies.
# UPCI:SCC090 cells [3] = assay: Clonogenic survival (crystal violet); format: cell-based, human; conditions: UPCI:SCC090/CH1 cells
# Method: as §1
# UMSCC47 cells [4] = assay: Clonogenic survival (crystal violet); format: cell-based, human; conditions: UMSCC47/CH1 cells
# Method: as §1
# UMSCC74A cells [5] = assay: Clonogenic survival (crystal violet); format: cell-based, human; conditions: overexpression of CH1, UMSCC74A cells
# Method: as §1
# UPCI:SCC090 cells [6] = assay: Cell proliferation (MTT); format: cell-based, human; conditions: UPCI:SCC090/CH1 cells
# Method: as §1
# UMSCC74A cells [7] = assay: Cell proliferation (MTT); format: cell-based, human; conditions: overexpression of CH1, UMSCC74A cells
# Method: as §1
# [8] = system: p300, p53, p21, miR-34a, miR-200c; assay: Quantitative real-time PCR of p300, p53, p21, miR-34a and miR-200c expression; format: cell-based, human
# Method: Cells were extracted for total RNA using the TRIzol® reagent (Invitrogen) or TaqMan PreAmp Cells-to-CT kit (Applied Biosystems). Expression of p300, p53, p21, miR-34a and miR-200c were determined using the Applied Biosystems 7900HT Fast Real-Time PCR System with validated TaqMan gene expression assays (Applied Biosystems). p53, p300, and p21 expression were normalized to GADPH and miR-34a and miR-200c expression were normalized to RNU44 using the ΔΔCt method.
# MDM2-p300 = target: T2, MDM2-p300 (Homo sapiens, UniProt Q09472); assay: Immunoprecipitation of MDM2-p300 association; format: cell-based; conditions: introduction of CH1, UMSCC74A cells
# T2 construct: Cell lysates were extracted, immunoprecipitated with anti-p300 antibody, and immunoblotted with anti-MDM2; endogenous in cells; host or cells: UMSCC74A (HPV-negative, p53 wildtype HNSCC)
# UMSCC47 cells [9] = assay: ALDH (ALDEFLUOR) and CD44 (FACS) cancer initiating cell markers; format: cell-based, human
# Method: Cells were assessed for ALDH activity using the ALDEFLUOR kit according to the manufacturer's protocol (Stem Cell Technologies, British Columbia, Canada). Cells were suspended in ALDEFLUOR assay buffer containing ALDH substrate (bidipy-aminoacetaldehyde, 1 μM per 1×10^6 cells) and incubated for 40 minutes at 37° C. For each experiment, a sample of cells was incubated with 50 mM of diethylaminobenzaldehyde (DEAB), a specific ALDH inhibitor, to serve as the negative control. For CD44 expression, cells were harvested and resuspened in incubation buffer with PE-CD44 antibody (Abcam) or mouse PE-IgG (Abcam) for 50 minutes on ice. Suspensions were centrifuged at 300×g for 5 minutes at 4° C. and resuspend in 0.5 mL of 1% paraformaldehyde solution for analysis. Fluorescence activated cell sorting (FACS) analyses were performed using BD FACS Calibur at The Ohio State University Comprehensive Cancer Center Analytical Cytometry Core.
# p53 [10] = assay: Western blot of total and acetylated[K382] p53 levels; format: cell-based, human
# Method: Whole cell lysates were mixed with Laemmli loading buffer, boiled, separated by SDS-PAGE, and transferred to a nitrocellulose membrane. Subsequently, immunoblot analyses were performed using antibodies specific to V5 (Invitrogen), p53 (sc-126, Santa Cruz Biotechnology, Santa Cruz, Calif.), or acetylated[[…]]-p53 (2525, Cell Signaling Technology). The signal was developed using the SuperSignal Western Blotting Kit (Pierce, Rockford, Ill.).
# UMSCC47 cells [11] = assay: Tumorsphere formation; format: cell-based, human; conditions: overexpression of CH1, UMSCC47 cells
# Method: Cells were harvested and seeded in a serum-free defined medium consisting of KSF medium supplemented with epidermal growth factor, basic fibroblast growth factor, insulin, and hydrocortisone in low-attachment plates (Corning Incorporated, Corning, N.Y.) for tumorspheres. Tumorsphere formation efficiency was calculated as the number of tumorspheres ([…] in diameter) formed in 7 days divided by the original number of cells seeded. Tumorsphere diameter was measured using NIS-Elements software.
# UMSCC47 cells [12] = assay: Tumor incidence and growth in athymic nude mice; format: in vivo
# Method: After 3 weeks, tumors were measured once a week using a digital caliper and tumor volumes were calculated using the formula d1×d2×d3×0.5236, where “d” represents the three orthogonal diameters. Tumor growth and incidence were monitored for 49 days following tumor cell implantation.
# UPCI:SCC090 cells [13] = assay: Apoptosis (Annexin V FACS); format: cell-based, human; conditions: CH1 overexpression
# Method: as §1
# UMSCC47 cells [14] = assay: Apoptosis (Annexin V FACS); format: cell-based, human; conditions: CH1 overexpression
# Method: as §1
# UMSCC74A cells [15] = assay: Apoptosis (Annexin V FACS); format: cell-based, human; conditions: overexpression of CH1, UMSCC74A cells
# Method: as §1
# [16] = CH1 overexpression, UMSCC47 cells
# [17] = CH1 overexpressing UMSCC47 and UPCI:SCC090 cells
# T2 sequence (Q09472 whole entry): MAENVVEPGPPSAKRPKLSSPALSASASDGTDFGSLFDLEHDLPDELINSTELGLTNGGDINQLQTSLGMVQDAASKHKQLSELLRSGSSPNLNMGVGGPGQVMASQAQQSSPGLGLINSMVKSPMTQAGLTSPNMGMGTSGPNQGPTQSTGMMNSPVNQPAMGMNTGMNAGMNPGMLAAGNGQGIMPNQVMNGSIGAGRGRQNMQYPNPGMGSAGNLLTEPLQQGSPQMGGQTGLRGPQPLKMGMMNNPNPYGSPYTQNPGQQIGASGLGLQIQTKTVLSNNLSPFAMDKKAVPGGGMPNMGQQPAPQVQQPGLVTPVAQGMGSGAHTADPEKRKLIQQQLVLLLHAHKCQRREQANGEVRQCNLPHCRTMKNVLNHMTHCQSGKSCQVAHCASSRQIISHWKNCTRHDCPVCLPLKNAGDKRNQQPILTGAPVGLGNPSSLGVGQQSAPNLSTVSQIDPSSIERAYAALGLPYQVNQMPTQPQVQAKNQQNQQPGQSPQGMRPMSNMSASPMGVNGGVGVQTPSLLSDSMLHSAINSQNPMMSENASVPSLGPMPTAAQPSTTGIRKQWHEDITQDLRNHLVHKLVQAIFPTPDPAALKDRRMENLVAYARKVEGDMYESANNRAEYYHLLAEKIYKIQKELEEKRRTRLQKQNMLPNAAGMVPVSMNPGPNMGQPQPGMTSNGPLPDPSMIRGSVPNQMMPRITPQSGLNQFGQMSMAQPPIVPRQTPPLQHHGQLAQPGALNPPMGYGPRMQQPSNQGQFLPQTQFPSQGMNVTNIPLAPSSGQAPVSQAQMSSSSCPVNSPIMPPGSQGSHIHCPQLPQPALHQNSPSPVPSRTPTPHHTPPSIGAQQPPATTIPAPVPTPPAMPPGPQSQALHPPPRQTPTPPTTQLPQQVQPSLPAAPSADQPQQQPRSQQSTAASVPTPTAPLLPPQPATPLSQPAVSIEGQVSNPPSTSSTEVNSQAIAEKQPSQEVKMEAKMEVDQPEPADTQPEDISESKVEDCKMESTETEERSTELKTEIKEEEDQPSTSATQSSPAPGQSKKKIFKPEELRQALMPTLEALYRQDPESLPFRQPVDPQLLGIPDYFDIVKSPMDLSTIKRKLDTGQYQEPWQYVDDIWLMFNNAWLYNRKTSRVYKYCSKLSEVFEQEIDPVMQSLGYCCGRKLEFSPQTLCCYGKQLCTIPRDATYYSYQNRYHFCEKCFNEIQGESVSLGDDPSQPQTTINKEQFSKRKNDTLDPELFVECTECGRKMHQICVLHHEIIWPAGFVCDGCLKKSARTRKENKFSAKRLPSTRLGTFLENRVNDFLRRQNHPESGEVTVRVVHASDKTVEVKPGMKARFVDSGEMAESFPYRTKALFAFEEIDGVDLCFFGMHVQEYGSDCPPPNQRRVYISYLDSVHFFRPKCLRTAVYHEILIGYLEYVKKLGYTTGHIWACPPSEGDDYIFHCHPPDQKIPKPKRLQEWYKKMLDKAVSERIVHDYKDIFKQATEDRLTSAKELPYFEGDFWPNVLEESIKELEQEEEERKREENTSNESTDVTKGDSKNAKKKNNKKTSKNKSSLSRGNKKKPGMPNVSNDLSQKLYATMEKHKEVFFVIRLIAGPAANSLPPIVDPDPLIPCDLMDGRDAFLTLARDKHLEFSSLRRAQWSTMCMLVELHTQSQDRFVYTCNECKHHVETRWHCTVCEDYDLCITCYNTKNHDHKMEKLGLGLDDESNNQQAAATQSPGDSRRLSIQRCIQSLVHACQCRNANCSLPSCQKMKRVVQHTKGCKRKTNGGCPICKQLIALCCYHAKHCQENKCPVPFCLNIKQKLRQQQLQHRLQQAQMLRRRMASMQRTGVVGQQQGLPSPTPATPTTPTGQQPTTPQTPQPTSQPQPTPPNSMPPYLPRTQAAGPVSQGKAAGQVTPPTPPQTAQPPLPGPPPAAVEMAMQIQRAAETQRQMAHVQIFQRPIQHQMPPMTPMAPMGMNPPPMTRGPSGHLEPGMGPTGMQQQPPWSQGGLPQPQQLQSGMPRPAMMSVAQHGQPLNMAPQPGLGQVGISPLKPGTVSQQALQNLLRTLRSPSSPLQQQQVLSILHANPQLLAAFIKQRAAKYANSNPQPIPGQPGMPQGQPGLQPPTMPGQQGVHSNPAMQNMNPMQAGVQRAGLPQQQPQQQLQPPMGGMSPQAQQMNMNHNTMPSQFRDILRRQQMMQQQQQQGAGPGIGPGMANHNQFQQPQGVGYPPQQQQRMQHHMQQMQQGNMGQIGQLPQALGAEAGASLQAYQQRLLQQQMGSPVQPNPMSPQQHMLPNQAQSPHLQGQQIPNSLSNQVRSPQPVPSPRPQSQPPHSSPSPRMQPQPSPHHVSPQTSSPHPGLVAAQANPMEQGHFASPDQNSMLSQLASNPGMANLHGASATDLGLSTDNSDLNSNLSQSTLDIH
# T1 sequence (Q09472 whole entry): as above
substance,measurement,setting,value
XELA*RAADQ-NH2 [CH1iB-mut],effect on anti-proliferative efficacy of cis-platinum,"UMSCC47 cells [1]; UMSCC47 cells, 10 μM with cis-platinum 10 μM",no effect
same,"cell proliferation, single-agent","UMSCC47 cells [1]; UMSCC47 cells, 10 μM, 24-72 hours",no effect
same,"p53 activity, increase","p53 [2]; HPV-positive UMSCC47 cells, 10 μM, 24 hours, vs vehicle",14%
CH1: CH1 domain of p300 ectopically expressed from pcDNA3.1/CH1 in stably transfected HNSCC cells,association between E6 and p300,HPV16 E6-p300,reduce the association between E6 and p300
same,"clonogenic survival, reduced by",UPCI:SCC090 cells [3],58%
same,"clonogenic survival, reduced by",UMSCC47 cells [4],55%
same,"clonogenic survival, inhibited by",UMSCC74A cells [5],70%
same,"cell proliferation, reduced by",UPCI:SCC090 cells [6],11%
same,"cell proliferation, reduced by",UMSCC47 cells [1]; UMSCC47/CH1 cells,20%
same,"cell proliferation, inhibited by",UMSCC74A cells [7],48%
same,"miR-34a expression, increased by",[8]; UMSCC47/CH1 cells,323%
same,"miR-200c expression, increased by",[8]; UMSCC47/CH1 cells,80%
same,"p21 expression, increased by",[8]; UMSCC47/CH1 cells,114%
same,"miR-34a expression, increased by",[8]; UPCI:SCC090/CH1 cells,134%
same,"miR-200c expression, increased by",[8]; UPCI:SCC090/CH1 cells,49%
same,"p21 expression, increased by",[8]; UPCI:SCC090/CH1 cells,39%
same,p53 and p300 expression,"[8]; overexpression of CH1, UMSCC47 and UPCI:SCC090",no effect
same,interaction between p300 and MDM2,MDM2-p300,disrupted
same,"ALDH^high population, reduced by",UMSCC47 cells [9]; [16],46%
same,"CD44^high population, reduced by",UMSCC47 cells [9]; [16],31%
same,"CD44 levels (FACS), reduced by",UMSCC47 cells [9]; UMSCC47/CH1 vs UMSCC47/empty cells,33%
same,"p53 transcription activity, elevated by",p53 [2]; UMSCC47/CH1 cells vs empty vector,85%
same,"p53 transcription activity, elevated by",p53 [2]; UMSCC74A/CH1 vs UMSCC74A/empty cells,68%
same,"p53 transcription activity, elevated by",p53 [2]; UPCI:SCC090/CH1 cells vs empty vector,50%
same,acetylated p53,p53 [10]; [17],increase
same,total p53,p53 [10]; [17],accumulation
same,total and acetylated p53,"p53 [10]; ectopic expression of CH1, HPV-negative UMSCC74A cells",increased
same,"tumorsphere diameter, reduced by",UMSCC47 cells [11],25%
same,"tumorsphere formation efficiency, inhibited by",UMSCC47 cells [11],42%
same,tumor incidence,UMSCC47 cells [12]; 3×10^4 UMSCC47/CH1 cells implanted (UMSCC47/empty 50%),0%
same,mean tumor volume,UMSCC47 cells [12]; 3×10^5 UMSCC47/CH1 cells implanted (UMSCC47/empty 142 mm^3),67 mm^3
same,tumor incidence vs UMSCC47/empty,"UMSCC47 cells [12]; 3×10^5 cells implanted in flanks, 49 days",the same
same,"apoptosis, increased by",UPCI:SCC090 cells [13],27%
same,"apoptosis, increased by",UMSCC47 cells [14],60%
same,"apoptosis, increased by",UMSCC74A cells [15],95%

# Reference: US20140205681A1, “HYDROGEN-BOND SURROGATE PEPTIDES AND PEPTIDOMIMETICS FOR p53 REACTIVATION” (New York University, priority 2013, published 2014)
